Measured values from patent publication US5686486A, “4-hydroxy-benzopyran-2-ones and 4-hydroxy-cycloalkyl[b]pyran-2-ones useful to treat retroviral infections” (priority 1995, dated 1997).
Values joined by “and” are separate entries in the source; they are usually repeats but may differ in a detail not shown here. Equal values may be shown once. Read-outs that look alike come from different tables or passages of the source.

Legend:
HIV-1 protease [1] = molecular target: T1, HIV-1 protease (Human immunodeficiency virus type 1 group M subtype B, UniProt P04585); assay: biochemical
Method: Determination of Ki values utilizes the same materials and equipment employed for percent inhibition studies. Two-fold serial dilutions are made for a given inhibitor from 2, 3 or 4 starting concentrations with a total of 24, 36 or 48 individual inhibitor concentrations. These dilutions are performed utilizing the BioMek robotics system. The assay consists of 10 μL of 40 nM HIV-1 protease, 10 μL of the various inhibitor concentrations, and 20 μL of 200 μM substrate (40 μL total). The reaction is allowed to proceed for 90 min at room temperature, terminated with 40 μL of avidin beads and processed (supra vide). An inhibitor with a known Ki is run in parallel to verify the validity of the assay. The data is processed utilizing a computer program employing a nonlinear least square analysis of the data to generate the Ki values.

HIV-1 protease [2] = molecular target: T1, HIV-1 protease; assay: biochemical; details: for inhibition at 0.123 µM: read-out: HIV-1 Protease % Inhib, dose 0.123 uM; for inhibition at 0.37 µM: read-out: HIV-1 Protease % Inhib, dose 0.370 uM; for inhibition at 1.1 µM: read-out: HIV-1 Protease % Inhib, dose 1.100 uM; for inhibition at 3.3 µM: read-out: HIV-1 Protease % Inhib, dose 3.300 uM; for inhibition at 10 µM: read-out: HIV-1 Protease % Inhib, dose 10.000 uM; for inhibition at 30 µM: read-out: HIV-1 Protease % Inhib, dose 30.000 uM; for inhibition at 0.41 µM: read-out: HIV-1 Protease % Inhib, dose 0.410 uM; for inhibition at 1.23 µM: read-out: HIV-1 Protease % Inhib, dose 1.230 uM; for inhibition at 3.7 µM: read-out: HIV-1 Protease % Inhib, dose 3.700 uM; for inhibition at 11 µM: read-out: HIV-1 Protease % Inhib, dose 11.000 uM; for inhibition at 33 µM: read-out: HIV-1 Protease % Inhib, dose 33.000 uM; for inhibition at 100 µM: read-out: HIV-1 Protease % Inhib, dose 100.000 uM; for inhibition at 1 µM: read-out: HIV-1 Protease % Inhib, dose 1.000 uM
In short: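 Percent inhibition derived from fluorescent cleavage product separated by filtration after streptavidin-bead capture of intact biotin/FITC substrate. Reaction: enzyme (10 μl, 0.1 μM stock) with substrate (20 μl, 0.2 μM stock) and compound, 1 h at room temperature in dark, pH 5.5 acetate buffer with 1.0 M NaCl and 0.05% NP-40.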

## O=c1oc2c(c(O)c1C(c1ccccc1)C1CC1)CCCCCC2CC1CC1 (stereo not drawn) [Example 121, 10-Cyclopropylmethyl-3-(cyclopropyl-phenyl-methyl)-4-hydroxy-5,6,7,8,9,10-hexahydro-cycloocta[b]pyran-2-one]
HIV-1 protease [1]; read-out: HIV-1 FITC KI
  Ki: 24 nM
HIV-1 protease [2]
  inhibition at 0.123 µM: 37.1%
  inhibition at 0.37 µM: 74.9%
  inhibition at 1.1 µM: 99.5%
  inhibition at 3.3 µM: 106%
  inhibition at 10 µM: 108%
  inhibition at 30 µM: 109%

## CCC(c1ccccc1)c1c(O)c2c(oc1=O)C(Cc1ccccc1)CCCCC2 (stereo not drawn) [Example 122]
HIV-1 protease [1]; read-out: HIV-1 FITC KI
  Ki: 175 nM
HIV-1 protease [2]
  inhibition at 0.41 µM: 35.1%
  inhibition at 1.23 µM: 63.5%
  inhibition at 3.7 µM: 91.7%
  inhibition at 11 µM: 98%
  inhibition at 33 µM: 93.2%
  inhibition at 100 µM: 94.3%

## O=c1oc2c(c(O)c1C(C1CC1)C1CC1)CCCCCC2Cc1ccccc1 (stereo not drawn) [Example 123, 10-Benzyl-3-dicyclopropylmethyl-4-hydroxy-5,6,7,8,9,10-hexahydro-cycloocta[b]pyran-2-one]
HIV-1 protease [1]; read-out: HIV-1 FITC KI
  Ki: 260 nM
HIV-1 protease [2]
  inhibition at 0.41 µM: 23.7%
  inhibition at 1.23 µM: 59.1%
  inhibition at 3.7 µM: 82.5%
  inhibition at 11 µM: 88.3%
  inhibition at 33 µM: 83.9%
  inhibition at 100 µM: 78.9%

## CCC(c1ccccc1)c1c(O)c2c(oc1=O)C(CC1CC1)CCC2 (stereo not drawn) [Example 124, 8-Cyclopropylmethyl-4-hydroxy-3-(1-phenyl-propyl)-5,6,7,8-tetrahydro-chromen-2-one]
HIV-1 protease [1]; read-out: HIV-1 FITC KI
  Ki: 1040 nM
HIV-1 protease [2]
  inhibition at 0.41 µM: < 10%
  inhibition at 1.23 µM: 32.4%
  inhibition at 3.7 µM: 65.6%
  inhibition at 11 µM: 81.6%
  inhibition at 33 µM: 88.2%
  inhibition at 100 µM: 89.4%

## O=c1oc2c(c(O)c1C(c1ccccc1)C1CC1)CCCCC2CC1CC1 (stereo not drawn) [Example 125, 9-Cyclopropylmethyl-3-(cyclopropyl-phenyl-methyl)-4-hydroxy-6,7,8,9-tetrahydro-5-H-cyclohepta[b]pyran-2-one]
HIV-1 protease [1]; read-out: HIV-1 FITC KI
  Ki: 24 nM
HIV-1 protease [2]
  inhibition at 0.41 µM: 101%
  inhibition at 1.23 µM: 108%
  inhibition at 3.7 µM: 108%
  inhibition at 11 µM: 108%
  inhibition at 33 µM: 102%
  inhibition at 100 µM: 105%

## CCC(c1ccccc1)c1c(O)c2c(oc1=O)C(C)CCCCC2 (stereo not drawn) [Example 126, 4-Hydroxy-10-methyl-3-(1-phenyl-propyl)-5,6,7,8,9,10-hexahydro-cycloocta[b]pyran-2-one]
HIV-1 protease [1]; read-out: HIV-1 FITC KI
  Ki: 331 nM
HIV-1 protease [2]
  inhibition at 0.41 µM: 25.9%
  inhibition at 1.23 µM: 59%
  inhibition at 3.7 µM: 89.8%
  inhibition at 11 µM: 96.7%
  inhibition at 33 µM: 100%
  inhibition at 100 µM: 95%

## CCC1CCCCCc2c1oc(=O)c(C(c1ccccc1)C1CC1)c2O (stereo not drawn) [Example 127, 3-(Cyclopropyl-phenyl-methyl)-10-ethyl-4-hydroxy-5,6,7,8,9,10-hexahydro-cycloocta[b]pyran-2-one]
HIV-1 protease [1]; read-out: HIV-1 FITC KI
  Ki: 33 nM
HIV-1 protease [2]
  inhibition at 0.123 µM: 52.3%
  inhibition at 0.37 µM: 92.5%
  inhibition at 1.1 µM: 112%
  inhibition at 3.3 µM: 115%
  inhibition at 10 µM: 117%
  inhibition at 30 µM: 111%

## CCCC1CCCCCc2c1oc(=O)c(C(c1ccccc1)C1CC1)c2O (stereo not drawn) [Example 128, 3-(Cyclopropyl-phenyl-methyl)-4-hydroxy-10-propyl-5,6,7,8,9,10-hexahydro-cycloocta[b]pyran-2-one]
HIV-1 protease [1]; read-out: HIV-1 FITC KI
  Ki: 26 nM
HIV-1 protease [2]
  inhibition at 0.123 µM: 32.5%
  inhibition at 0.37 µM: 85.6%
  inhibition at 1.1 µM: 102%
  inhibition at 3.3 µM: 112%
  inhibition at 10 µM: 107%
  inhibition at 30 µM: 102%

## CCCCC1CCCCCc2c1oc(=O)c(C(c1ccccc1)C1CC1)c2O (stereo not drawn) [Example 129, 10-Butyl-3-(cyclopropyl-phenyl-methyl)4-hydroxy-5,6,7,8,9,10-hexahydro-cycloocta[b]pyran-2-one]
HIV-1 protease [1]; read-out: HIV-1 FITC KI
  Ki: 31 nM
HIV-1 protease [2]
  inhibition at 0.123 µM: 23.2%
  inhibition at 0.37 µM: 67.8%
  inhibition at 1.1 µM: 96.5%
  inhibition at 3.3 µM: 106%
  inhibition at 10 µM: 117%
  inhibition at 30 µM: 120%

## O=c1oc2c(c(O)c1C(c1ccccc1)C1CC1)CCCCCC2CC1CCCCO1 (stereo not drawn) [Example 130, 3-(Cyclopropyl-phenyl-methyl)-4-hydroxy-10-(tetrahydro-pyran-2-ylmethyl)-5,6,7,8,9,10-hexahydro-cycloocta[b]pyran-2-one]
HIV-1 protease [1]; read-out: HIV-1 FITC KI
  Ki: 119 nM
HIV-1 protease [2]
  inhibition at 0.37 µM: 14.7%
  inhibition at 1.1 µM: 54%
  inhibition at 3.3 µM: 88.6%
  inhibition at 10 µM: 104%
  inhibition at 30 µM: 112%

## CC(C)CC1CCCCCc2c1oc(=O)c(C(c1ccccc1)C1CC1)c2O (stereo not drawn) [Example 131, 3-(Cyclopropyl-phenyl-methyl)-4-hydroxy-10-isobutyl-5,6,7,8,9,10-hexahydro-cycloocta[b]pyran-2-one]
HIV-1 protease [1]; read-out: HIV-1 FITC KI
  Ki: 30 nM
HIV-1 protease [2]
  inhibition at 0.123 µM: 30.7%
  inhibition at 0.37 µM: 74.2%
  inhibition at 1.1 µM: 98.7%
  inhibition at 3.3 µM: 112%
  inhibition at 10 µM: 116%
  inhibition at 30 µM: 106%

## CC(C)CCC1CCCCCc2c1oc(=O)c(C(c1ccccc1)C1CC1)c2O (stereo not drawn) [Example 132, 3-(Cyclopropyl-phenylmethyl)-4-hydroxy-10-(3-methyl-butyl)-5,6,7,8,9,10-hexahydro-cycloocta[b]pyran-2-one]
HIV-1 protease [1]; read-out: HIV-1 FITC KI
  Ki: 50 nM
HIV-1 protease [2]
  inhibition at 0.37 µM: 39.5%
  inhibition at 1.1 µM: 76.2%
  inhibition at 3.3 µM: 98.1%
  inhibition at 10 µM: 104%
  inhibition at 30 µM: 103%

## O=c1oc2c(c(O)c1C(c1ccccc1)C1CC1)CCCCCC2CC1CCOC1 (stereo not drawn) [Example 133, 3-(Cyclopropyl-phenyl-methyl)-4-hydroxy-10-(tetrahydro-furan-3-ylmethyl)-5,6,7,8,9,10-hexahydro-cycloocta[b]pyran-2-one]
HIV-1 protease [1]; read-out: HIV-1 FITC KI
  Ki: 12 nM
HIV-1 protease [2]
  inhibition at 0.123 µM: 19.1%
  inhibition at 0.37 µM: 71.2%
  inhibition at 1.1 µM: 97.9%
  inhibition at 3.3 µM: 101%
  inhibition at 10 µM: 101%
  inhibition at 30 µM: 99.5%

## CCC(O)C1CCCCCc2c1oc(=O)c(C(c1ccccc1)C1CC1)c2O (stereo not drawn) [Example 134, 3-(Cyclopropyl-phenyl-methyl)-4-hydroxy-10-(1-hydroxy-propyl)-5,6,7,8,9,10-hexahydro-cycloocta[b]pyran-2-one]
HIV-1 protease [1]; read-out: HIV-1 FITC KI
  Ki: 15 nM
HIV-1 protease [2]
  inhibition at 0.123 µM: 54%
  inhibition at 0.37 µM: 97.7%
  inhibition at 1.1 µM: 104%
  inhibition at 3.3 µM: 111%
  inhibition at 10 µM: 111%
  inhibition at 30 µM: 109%

## C=CCCC1CCCCc2c1oc(=O)c(C(c1ccccc1)C1CC1)c2O (stereo not drawn) [Example 135, 9-But-3-enyl-3-(cyclopropyl-phenyl-methyl)4-hydroxy-6,7,8,9-tetrahydro-5H-cyclohepta[b]pyran-2-one]
HIV-1 protease [1]; read-out: HIV-1 FITC KI
  Ki: 30 nM
HIV-1 protease [2]
  inhibition at 0.41 µM: 87.1%
  inhibition at 1.23 µM: 92.5%
  inhibition at 3.7 µM: 96.7%
  inhibition at 11 µM: 82.4%
  inhibition at 33 µM: 71.2%
  inhibition at 100 µM: 63.6%

## O=c1oc2c(c(O)c1C(Cc1ccccc1)Cc1ccccc1)CCCCCC2 [Example 136, 3-(1-Benzyl-2-phenyl-ethyl)-4-hydroxy-5,6,7,8,9,10-hexahydro-cycloocta[b]pyran-2-one]
HIV-1 protease [1]; read-out: HIV-1 FITC KI
  Ki: 108 nM
HIV-1 protease [2]
  inhibition at 0.41 µM: 56.6%
  inhibition at 1.23 µM: 80.1%
  inhibition at 3.7 µM: 90.1%
  inhibition at 11 µM: 92.4%
  inhibition at 33 µM: 91.6%
  inhibition at 100 µM: 103%

## C=CS(=O)(=O)Nc1cccc(C(CC)c2c(O)c3ccccc3oc2=O)c1 (stereo not drawn) [Example 137, Ethenesulfonic acid (3-(1-(4-hydroxy-2-oxo-2H-chromen-3-yl)-propyl)-phenyl)-amide]
HIV-1 protease [1]; HIV-1 FITC KI
  Ki: 1750 nM and 2200 nM
HIV-1 protease [2]
  inhibition at 1 µM: 11.3%
  inhibition at 10 µM: 62.9%
  inhibition at 100 µM: 89.1%

## CCC(c1cccc(NS(=O)(=O)CC)c1)c1c(O)c2ccccc2oc1=O (stereo not drawn) [Example 138, Ethanesulfonic acid (3-(1-(4-hydroxy-2-oxo-2H-chromen-3-yl)-propyl)-phenyl)-amide]
HIV-1 protease [1]; HIV-1 FITC KI
  Ki: 2350 nM
HIV-1 protease [2]
  inhibition at 1 µM: 11.9%
  inhibition at 10 µM: 64.5%
  inhibition at 100 µM: 99.3%

## CCC(c1cccc(NS(=O)(=O)CCN2C(=O)c3ccccc3C2=O)c1)c1c(O)c2ccccc2oc1=O (stereo not drawn) [Example 139, 2-(1,3-Dioxo-1,3-dihydro-isoindol-2-yl)-ethanesulfonic acid(3-(1-(4-hydroxy-2-oxo-2H-chromen-3-yl)-propyl)-phenyl)amide]
HIV-1 protease [1]; HIV-1 FITC KI
  Ki: 500 nM
HIV-1 protease [2]
  inhibition at 1 µM: 36.6%
  inhibition at 10 µM: 80.7%
  inhibition at 100 µM: 99.2%

## CCC(c1cccc(NS(=O)(=O)CCNC(=O)OC(C)(C)C)c1)c1c(O)c2ccccc2oc1=O (stereo not drawn) [Example 140, 2-(N-t-butyloxycarbonyl-amino)-ethanesulfonic acid (3-(1-(4-hydroxy-2-oxo-2H-chromen-3-yl)-propyl)-phenyl)-amide]
HIV-1 protease [1]; HIV-1 FITC KI
  Ki: 762 nM
HIV-1 protease [2]
  inhibition at 0.41 µM: < 10%
  inhibition at 1.23 µM: 16.5%
  inhibition at 3.7 µM: 48.1%
  inhibition at 11 µM: 71.8%
  inhibition at 33 µM: 91.1%
  inhibition at 100 µM: 109%
